According to US20240279278A1, “NMU RECEPTOR 2 AGONISTS” (Boehringer Ingelheim International GmbH, priority 2023, published 2024):
pEC50, pKi: −log10 of the molar value. Values after ≈ are worked out from the molar mass of the structure shown. Residues, ends and D or L forms follow the SMILES beside them.

Key:
[1] = physchem; assay type: physicochemical; details: pH 7.3
Experimental: Example 6: Solubility Determination
Peptides (as TFA-salts) were weighed out in a filter unit (Mini-UniPrep Syringeless Filter 0.45 μm, Whatman PVDF), and 0.1 M phosphate buffer at pH 6 to 8 was added to achieve 10 mg/mL final peptide concentration. The peptides were dissolved by shaking the filter units horizontally at 350 rpm for 2 hours at room temperature. Samples were then filtered to remove any insoluble particles. Controls were prepared by weighing out the corresponding peptide solid material and dissolving it in an appropriate vehicle (e.g. buffer or DMSO) to a final concentration of 1 mg/mL. Both, the control and sample were analyzed by reversed phase chromatography. The area under the peak of the sample was compared to the control and the solubility was calculated based on that ratio. The pH was measured and recorded for each sample.

[2] = target: T1, human NMUR1 receptor (Homo sapiens, UniProt Q9HB89); test: Radioligand binding competition assay (RLB), human NMUR1 receptor binding (SPA, [125I]-Neuromedin U-25); details: CHO-K1 hNMUR1 cell membranes, 4 hours at RT
T1 construct: host or cells: CHO-K1
T1 sequence (Q9HB89 24-426 limits assumed): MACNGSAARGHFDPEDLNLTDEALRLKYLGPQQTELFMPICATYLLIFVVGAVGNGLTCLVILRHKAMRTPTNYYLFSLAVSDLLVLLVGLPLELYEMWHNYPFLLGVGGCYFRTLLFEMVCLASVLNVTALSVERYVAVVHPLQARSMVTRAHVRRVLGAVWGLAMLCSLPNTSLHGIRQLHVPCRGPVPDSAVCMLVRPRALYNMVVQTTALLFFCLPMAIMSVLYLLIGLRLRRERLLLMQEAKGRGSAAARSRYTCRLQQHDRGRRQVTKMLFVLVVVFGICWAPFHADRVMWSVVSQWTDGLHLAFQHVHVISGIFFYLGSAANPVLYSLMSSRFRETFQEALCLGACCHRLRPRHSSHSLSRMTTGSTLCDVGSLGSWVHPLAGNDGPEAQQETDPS
Description: Example 2: Radioligand Binding Competition Assay (RLB) Human NMUR1 Receptor Binding 1) Membranes The test is based on membranes prepared from a human NMUR1/Apoaequorin Stable Cell Line (Creative Biogene, Cat. No. CSC-RG1308). Cell Line Description: CHO-NMUR1 cell line is clonally-derived from a CHO-K1 cell line, which has been transfected with a bicistronic expression plasmid containing the sequence coding for the human neuromedin U receptor 1 (NM_006056.4, 180 to 1391). Mosaic-ID: CL16550614 Membrane preparation: Cells were broken by nitrogen cavitation (900 psi, 1 hour). Intact cells were removed by centrifugation (400 rcf, 10 minutes, 4° C.) before the crude membrane fraction was collected by ultracentrifugation (20.000 rcf, 1 hour, 4° C.). 2) Human NMUR1 Receptor Binding Assay (Radioligand: [125l]-Neuromedin U-25) In this Scintillation Proximity Assay (SPA) design, the membranes immobilize directly to the PVT-WGA-PEI type A beads (polyethyleneimine treated polyvinyltoluene beads coupled to wheatgerm agglutinin, Perkin Elmer) via interactions of wheat germ agglutinate and glycosylated membrane structures. Thereby the radioactively la-belled ligand, bound to NMUR1 receptors on the membrane, comes in close proximity to the solid scintillator of the PVT bead. Radioactive human neuromedin U-25 then stimulates the scintillant to emit light. In contrast, radioligand not bound to the receptor is too distant from the bead to elicit a signal. For the Scintillation Proximity Assay the CHO-K1 hNMUR1 cell membranes and SPA-beads are diluted to concentrations, which assure a robust signal to background ratio. The SPA incubation buffer consists of 25 mM Hepes (pH=7.0), 5 mM MgCl2, 1 mM CaCl2, 10 ug/mL Saponine and 0.1% bovine serum albumin and is used for all dilutions. Final assay setup in 96-well plate: 20 μL of 10× test compound dilutions+40 μL of 5× [125l]-Neuromedin U-25 (1× approx. 30 pM; 2000 μCi/mmol (μCi=microcurie))+60 μL membrane dilution (approx. 1.0 μg membrane protein)+80 μL SPA bead dilution (250 μg). The assay is incubated for 4 hours at RT, including controls for specific binding where no displacer is added and non-specific binding by adding unlabeled hNMU-25 at 100 nM. Bound radioactivity is determined by scintillation counting (MicroBeta Trilux 1450, Perkin Elmer, detection of 125I decay). […] The system assumes one binding site with no relevant radioligand depletion (<10%) and that the binding is reversible and at equilibrium. [formula] [formula]

[3] = target: human NMUR2 receptor (Homo sapiens, UniProt Q9GZQ4); test: IP1 Gq HTRF assay, activation of human NMUR2 in buffer; assay type: cell-based; set-up: expressed in transfected cells; host or cells: CHO-K1; details: CHO-K1 cells expressing human NMUR2, stimulation buffer with 0.1% BSA; read-out: EC50 (hNMUR2) buffer
Chain of human NMUR2 receptor (Q9GZQ4 whole entry): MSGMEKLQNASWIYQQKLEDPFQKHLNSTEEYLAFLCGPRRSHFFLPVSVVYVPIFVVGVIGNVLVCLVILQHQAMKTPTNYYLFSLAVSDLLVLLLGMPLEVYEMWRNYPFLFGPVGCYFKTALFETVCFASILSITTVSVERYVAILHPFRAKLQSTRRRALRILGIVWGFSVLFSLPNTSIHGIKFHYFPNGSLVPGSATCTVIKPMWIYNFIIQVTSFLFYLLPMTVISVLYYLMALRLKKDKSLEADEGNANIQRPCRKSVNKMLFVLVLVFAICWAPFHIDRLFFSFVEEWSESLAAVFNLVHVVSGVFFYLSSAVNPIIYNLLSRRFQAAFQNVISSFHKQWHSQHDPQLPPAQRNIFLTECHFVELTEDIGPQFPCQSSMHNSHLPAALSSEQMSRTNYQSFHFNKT
In short: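 IP-One HTRF competition (665/620 nm ratio) read after 1 h agonist exposure at 37 °C in pH 7.4 HEPES/HBSS stimulation buffer containing 50 mM LiCl, 0.1% BSA, 1% DMSO. Cells: CHO-K1 stably expressing human NMUR2 or NMUR1. EC50 by 4-parameter nonlinear regression of 8-point curves.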

| SMILES | solubility at 2 h [1] | pKi [2] | pEC50 [3] |
| --- | --- | --- | --- |
| CCCC[C@H](NC(=O)[C@H](CC(C)C)N(C)C(=O)[C@H](Cc1ccccc1)NC(=O)[C@H](Cc1ccc(O)cc1)NC(=O)CN1CCN(CCNC(=O)CN(C)C(=O)CN(C)C(=O)CN(C)C(=O)CN(C)C(=O)CN(C)C(=O)CN(C)C(=O)CN(C)C(=O)CN(C)C(=O)CN(C)C(=O)CC[C@H](NC(=O)CC[C@H](NC(=O)CC[C@H](NC(=O)CCCCCCCCCCCCCCCCC(=O)O)C(=O)O)C(=O)O)C(=O)O)CC1)C(=O)N[C@@H](CCN)C(=O)N1CCC[C@H]1C(=O)N[C@@H](CCCNC(=N)N)C(=O)NCC(N)=O [Compound 24, C18DA-gGlu3-Sar9-AEPipAc-Tyr-Phe-NMeLeu-Nle-Dbu-Pro-Arg-Gly-NH2] (HELM PEPTIDE1{[O=C(O)CCCCCCCCCCCCCCCCC(=O)[*:2]].[gGlu].[gGlu].[gGlu].[Sar].[Sar].[Sar].[Sar].[Sar].[Sar].[Sar].[Sar].[Sar].[O=C(CN1CCN(CCN[*:1])CC1)[*:2]].Y.F.[meL].[Nle].[Dab].P.R.G.[am]}$$$$V2.0) | 9500 µg/mL (≈ 3.84 mM) | < 5.00 | 8.85 |
| CCCC[C@H](NC(=O)[C@H](CC(C)C)N(C)C(=O)[C@H](Cc1ccccc1)NC(=O)[C@H](Cc1ccc(O)cc1)NC(=O)CN1CCN(CCNC(=O)CN(C)C(=O)CN(C)C(=O)CN(C)C(=O)CN(C)C(=O)CN(C)C(=O)CN(C)C(=O)CN(C)C(=O)CN(C)C(=O)CN(C)C(=O)CN(C)C(=O)CN(C)C(=O)CN(C)C(=O)CN(C)C(=O)CN(C)C(=O)CN(C)C(=O)CC[C@H](NC(=O)CC[C@H](NC(=O)CC[C@H](NC(=O)CCCCCCCCCCCCCCCCCCC(=O)O)C(=O)O)C(=O)O)C(=O)O)CC1)C(=O)N[C@@H](CCCNC(=N)N)C(=O)N(C)[C@@H](C)C(=O)N[C@@H](CCCNC(=N)N)C(=O)NCC(N)=O [Compound 10, C20DA-gGlu3-Sar15-AEPipAc-Tyr-Phe-NMeLeu-Nle-Arg-NMeAla-Arg-Gly-NH2] (HELM PEPTIDE1{[O=C(O)CCCCCCCCCCCCCCCCCCC(=O)[*:2]].[gGlu].[gGlu].[gGlu].[Sar].[Sar].[Sar].[Sar].[Sar].[Sar].[Sar].[Sar].[Sar].[Sar].[Sar].[Sar].[Sar].[Sar].[Sar].[O=C(CN1CCN(CCN[*:1])CC1)[*:2]].Y.F.[meL].[Nle].R.[meA].R.G.[am]}$$$$V2.0) | – | < 5.00 | 8.39 |
| CCCC[C@H](NC(=O)[C@H](CC(C)C)N(C)C(=O)[C@H](Cc1ccccc1)NC(=O)[C@H](Cc1ccc(O)cc1)NC(=O)CN1CCN(CCNC(=O)CN(C)C(=O)CN(C)C(=O)CN(C)C(=O)CN(C)C(=O)CN(C)C(=O)CN(C)C(=O)CN(C)C(=O)CN(C)C(=O)CN(C)C(=O)CN(C)C(=O)CN(C)C(=O)CN(C)C(=O)CC[C@H](NC(=O)CC[C@H](NC(=O)CC[C@H](NC(=O)CCCCCCCCCCCCCCCCC(=O)O)C(=O)O)C(=O)O)C(=O)O)CC1)C(=O)N[C@@H](CCCNC(=N)N)C(=O)N(C)[C@@H](C)C(=O)N[C@@H](CCCNC(=N)N)C(=O)NCC(N)=O [Compound 12, C18DA-gGlu3-Sar12-AEPipAc-Tyr-Phe-NMeLeu-Nle-Arg-NMeAla-Arg-Gly-NH2] | – | < 5.00 | 8.57 |
| CCCC[C@H](NC(=O)[C@H](CC(C)C)N(C)C(=O)[C@H](Cc1ccccc1)NC(=O)[C@H](Cc1ccc(O)cc1)NC(=O)CN1CCN(CCNC(=O)CN(C)C(=O)CN(C)C(=O)CN(C)C(=O)CN(C)C(=O)CN(C)C(=O)CN(C)C(=O)CN(C)C(=O)CN(C)C(=O)CN(C)C(=O)CN(C)C(=O)CN(C)C(=O)CN(C)C(=O)CN(C)C(=O)CN(C)C(=O)CN(C)C(=O)CC[C@H](NC(=O)CC[C@H](NC(=O)CC[C@H](NC(=O)CCCCCCCCCCCCCCCCCCC(=O)O)C(=O)O)C(=O)O)C(=O)O)CC1)C(=O)N[C@@H](CCCNC(=N)N)C(=O)N1CCC[C@H]1C(=O)N[C@@H](CCCNC(=N)N)C(=O)NCC(N)=O [Compound 9, C20DA-gGlu3-Sar15-AEPipAc-Tyr-Phe-NMeLeu-Nle-Arg-Pro-Arg-Gly-NH2] (HELM PEPTIDE1{[O=C(O)CCCCCCCCCCCCCCCCCCC(=O)[*:2]].[gGlu].[gGlu].[gGlu].[Sar].[Sar].[Sar].[Sar].[Sar].[Sar].[Sar].[Sar].[Sar].[Sar].[Sar].[Sar].[Sar].[Sar].[Sar].[O=C(CN1CCN(CCN[*:1])CC1)[*:2]].Y.F.[meL].[Nle].R.P.R.G.[am]}$$$$V2.0) | – | < 5.00 | 8.55 |
| CCCC[C@H](NC(=O)[C@H](CC(C)C)N(C)C(=O)[C@H](Cc1ccccc1)NC(=O)[C@H](Cc1ccc(O)cc1)NC(=O)CN1CCN(CCNC(=O)CN(C)C(=O)CN(C)C(=O)CN(C)C(=O)CN(C)C(=O)CN(C)C(=O)CN(C)C(=O)CN(C)C(=O)CN(C)C(=O)CN(C)C(=O)CC[C@H](NC(=O)CC[C@H](NC(=O)CC[C@H](NC(=O)CCCCCCCCCCCCCCCCCCC(=O)O)C(=O)O)C(=O)O)C(=O)O)CC1)C(=O)N[C@@H](CCCNC(=N)N)C(=O)N1CCC[C@H]1C(=O)N[C@@H](CCCNC(=N)N)C(=O)NCC(N)=O [Compound 65, C20DA-gGlu3-Sar9-AEPipAc-Tyr-Phe-NMeLeu-Nle-Arg-Pro-Arg-Gly-NH2] (HELM PEPTIDE1{[O=C(O)CCCCCCCCCCCCCCCCCCC(=O)[*:2]].[gGlu].[gGlu].[gGlu].[Sar].[Sar].[Sar].[Sar].[Sar].[Sar].[Sar].[Sar].[Sar].[O=C(CN1CCN(CCN[*:1])CC1)[*:2]].Y.F.[meL].[Nle].R.P.R.G.[am]}$$$$V2.0) | – | 6.14 | 8.55 |
| CCCC[C@H](NC(=O)[C@H](CC(C)C)N(C)C(=O)[C@H](Cc1ccccc1)NC(=O)[C@H](Cc1ccc(O)cc1)NC(=O)CN1CCN(CCNC(=O)CN(C)C(=O)CN(C)C(=O)CN(C)C(=O)CN(C)C(=O)CN(C)C(=O)CN(C)C(=O)CN(C)C(=O)CN(C)C(=O)CN(C)C(=O)CN(C)C(=O)CN(C)C(=O)CN(C)C(=O)CN(C)C(=O)CN(C)C(=O)CN(C)C(=O)CC[C@H](NC(=O)CC[C@H](NC(=O)CC[C@H](NC(=O)CCCCCCCCCCCCCCCCC(=O)O)C(=O)O)C(=O)O)C(=O)O)CC1)C(=O)N[C@@H](CCCNC(=N)N)C(=O)N(C)[C@@H](C)C(=O)N[C@@H](CCCNC(=N)N)C(=O)NCC(N)=O [Compound 11, C18DA-gGlu3-Sar15-AEPipAc-Tyr-Phe-NMeLeu-Nle-Arg-NMeAla-Arg-Gly-NH2] (HELM PEPTIDE1{[O=C(O)CCCCCCCCCCCCCCCCC(=O)[*:2]].[gGlu].[gGlu].[gGlu].[Sar].[Sar].[Sar].[Sar].[Sar].[Sar].[Sar].[Sar].[Sar].[Sar].[Sar].[Sar].[Sar].[Sar].[Sar].[O=C(CN1CCN(CCN[*:1])CC1)[*:2]].Y.F.[meL].[Nle].R.[meA].R.G.[am]}$$$$V2.0) | – | < 5.00 | 8.55 |
